# From PMC4232273 (Angewandte Chemie (International Ed. in English), 2014)
# Molecular target: New Delhi metallo-β-lactamase subclass 1 (NDM-1) (Klebsiella pneumoniae, UniProt C7C422)
# Test: 1H NMR monitoring of hydrolysis in E. coli cells expressing NDM-1
# Assay type: cell-based
# Sequence of New Delhi metallo-β-lactamase subclass 1 (NDM-1) (C7C422 29-270, looked up): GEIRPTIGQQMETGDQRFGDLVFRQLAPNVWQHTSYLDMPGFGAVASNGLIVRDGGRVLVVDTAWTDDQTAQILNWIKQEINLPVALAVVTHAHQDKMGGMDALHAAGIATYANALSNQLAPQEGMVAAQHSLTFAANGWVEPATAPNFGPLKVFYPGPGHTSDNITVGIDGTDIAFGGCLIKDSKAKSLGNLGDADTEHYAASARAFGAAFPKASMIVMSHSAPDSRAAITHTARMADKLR
smiles,measurement,value
C[C@@H](O)[C@H]1C(=O)N2C(C(=O)O)=C(SCCN=CN)C[C@H]12 [imipenem],1H NMR monitoring of hydrolysis in E. coli cells expressing NDM-1,These were readily hydrolyzed by the NDM-1 E. coli cells within an hour or so under our experimental conditions
